Source: patent US20250170133A1, “PHARMACEUTICAL COMBINATIONS AND METHODS OF USE OF AMINO-PYRROLOPYRIMIDINONE COMPOUND” (Merck Sharp & Dohme LLC, priority 2022, published 2025)

What was measured:
[1] = tested on: Eμ-TCL1 adoptive transfer CLL mouse model; experiment: Eμ-TCL1 adoptive transfer CLL mouse model, survival; assay type: in vivo, C57BL/6NTac mice; conditions: daily oral gavage; venetoclax 100 mg/kg, nemtabrutinib 75 mg/kg, ibrutinib 25 mg/kg; 48 mice with BCR-dependent disease
From the text: (Bichi R, et al. Proc Natl Acad Sci USA. 2002; 99(10):6955-60). For FIG. 2A, splenocytes from a Eμ-TCL1 donor mouse were engrafted into 93 C57BL/6NTac mice via tail vein injection. Recipient mice were randomly enrolled into treatment groups after developing CD5+CD19+ disease as assessed by flow cytometry of peripheral blood. […] Due to the large study size, splenocytes from multiple E-TCL1 donors were needed to engraft C57BL/6NTac mice. Splenocytes from 4 donors were engrafted into groups of 48, 25, 17, and 3 recipient mice, respectively.
Peripheral blood disease progression was monitored weekly via flow cytometry and was reported as % CD5+CD19+ of CD45+ cells. (FIG. 2B). […] The survival differences of 48 mice engrafted with splenocytes from a single donor with BCR-dependent disease were assessed.

BTK's downstream targets = conditions: cited from earlier work
BCL-2 and BCL-xL = experiment: BH3 profiling of primary CLL cells from nemtabrutinib treated patients (cytochrome c release); assay type: cell-based, human; conditions: samples from 3 nemtabrutinib treated patients, co-cultured with NK Tert stromal cells
From the text: For FIG. 1F, primary CLL cells from nemtabrutinib treated patients were co-cultured with NK Tert stromal cells before performing BH3 profiling using BIM, BAD, MS-1, Y4ek, and PUMA2A peptides. Baseline cytochrome c release measured in DMSO treated cells has been subtracted from all test conditions and controls presented. Cytochrome c release in response to interaction with BIM, BAD, and Y4ek peptides indicates cellular dependency on BCL-2 and BCL-xL. A linear mixed effect model was used to analyze raw data and p values were adjusted for multiple comparisons using Tukey's method. All statistics represented are in comparison to DMSO treated control (*, p<0.05, **, p<0.01, ***, p<0.001).

Primary CLL cells = experiment: Primary CLL cell viability by flow cytometry following Annexin V/PI staining; assay type: cell-based, human; conditions: BTKi 1 μM added to venetoclax 5 nM; ibrutinib washed out after 1 hr; total incubation 24 hr
Protocol: Cell viability was assessed by flow cytometry following Annexin V/PI staining. Data are normalized to DMSO control. A linear mixed effect model was used to analyze raw data and p values were adjusted for multiple comparisons using Tukey's method (*, p<0.05, **, pS0.01, ***, pS0.001).

ERK phosphorylation = experiment: Immunoblot of anti-IgM stimulated primary CLL cells: pERK; assay type: cell-based, human; conditions: nemtabrutinib vs ibrutinib (1 μM), 24 hr, anti-IgM 15 min, normalized to GAPDH
Protocol: The effects of combining venetoclax and BTKi's on BCR signaling can be seen in FIG. 1B. […] Cells were stimulated with 10 μg plate-bound anti-IgM for 15 min before collection of whole cell lysate and analysis using SDS-PAGE.
For FIG. 1C to IE, all immunoblots of primary CLL patient samples were quantified using densitometry software (AlphaView). Protein levels (FIG. 1C: pBTK, FIG. 1D: pERK, FIG. 1E: MCL-1) normalized to GAPDH loading control are reported as fold change over vehicle control. A linear mixed effect model was used to analyze raw data normalized to GAPDH loading control and p values were adjusted for multiple comparisons using Tukey's method (*, p<0.05, ** p<0.01, ***, p<0.001).

[2] = tested on: BTK^Y223 autophosphorylation; experiment: Immunoblot of anti-IgM stimulated primary CLL cells: pBTK; assay type: cell-based, human; conditions: ibrutinib (1 μM), 24 hr, anti-IgM 15 min, normalized to GAPDH

| Compound | median survival [1] | inhibition of BTK's downstream targets compared to ibrutinib (BTK's downstream targets) | cytochrome c release in response to BIM, BAD and Y4ek peptides (BCL-2 and BCL-xL) | increase in cytotoxicity compared to venetoclax alone (Primary CLL cells) | ERK phosphorylation (ERK phosphorylation) | autophosphorylation of BTK^Y223 vs stimulated vehicle [2] |
| --- | --- | --- | --- | --- | --- | --- |
| CC1(C)CCC(CN2CCN(c3ccc(C(=O)NS(=O)(=O)c4ccc(NCC5CCOCC5)c([N+](=O)[O-])c4)c(Oc4cnc5[nH]ccc5c4)c3)CC2)=C(c2ccc(Cl)cc2)C1 [venetoclax, reference compound] | 34.5 days |  |  |  |  |  |
| O=C(c1ccc(Oc2ccccc2)cc1Cl)c1c[nH]c2ncnc(N[C@@H]3CC[C@@H](CO)OC3)c12 [nemtabrutinib] | 81.5 days | greater inhibition | maintain dependence on BCL2 and BCL-xL | 10% | inhibited to a more significant degree | significantly inhibited |
